# Like-named read-outs stand apart in the source and are kept apart here.
# Key:
# S. aureus = experiment: antimicrobial activity (MIC) of P-L-A conjugates; assay type: cell-based
# [1] = tested on: P. acnes clinical isolates; experiment: P. acnes CFU assay, clinical isolates; assay type: cell-based, Propionibacterium acnes
# [2] = tested on: Vancomycin-Sensitive Enterococci (VSE); experiment: organism not typed; assay type: cell-based; settings: read-out: MIC
# Source text: Pentobra was screened against a broad panel of microbial pathogens, including strains of E. coli, MRSA, Klebsiella (Kleb), Acinetobacter (AcB), Vancomycin-Sensitive Enterococci (VSE) and Vancomycin-Resistant Enterococci (VRE), and specifically including E. faecalis samples. […] The experimenter reported the minimum inhibitory concentration (MIC) in mass units per unit volume (μg/mL) for each compound, and MIC data were converted into molar concentrations (μM) due to the large difference between the molecular weight of tobramycin (467.5 g/mol) and Pentobra (2277 g/mol).
# [3] = tested on: S. aureus S113 persister cells; experiment: persister cell plate killing assay; assay type: cell-based, Staphylococcus aureus; settings: 1.5 h
# Description: Procedure for preparing S. aureus SA113 and E. coli Dh5α persister cells were based on previous protocols. Cells from freshly streaked agar plates were inoculated in 1 mL TSB and incubated 16 h at 37° C. in a shaker incubator to obtain stationary phase cultures. Non-persister cells were eliminated by adding ampicillin to a final concentration of 100 μg/mL, followed by 3 h incubation at 37° C.
# S. aureus cells were diluted 10× into 10 mM Pipes at pH 7.4 buffer for a bacteria stock solution of roughly 10^9 CFU/mL. 20 μL S. aureus suspension was introduced into 180 μL Pipes buffer containing various concentrations of antibiotic (Pentobra, tobramycin) in 96 well plates for a total of ˜10^8 CFU/well. The plates were sealed with parafilm, loaded onto microplate shakers and placed in 37° C. incubator for 1.5 h. After incubation, 10-fold serial dilutions were made in Pipes buffer. Half of each dilution (100 μL) was spotted onto LB agar plates and incubated overnight at 37° C. to yield visible colonies. The S. aureus persister assays were performed in triplicate. The data shown are averages from two independent trials and were representative of the three assays.
# The bactericidal effects of Pentobra against persistent bacteria were investigated with plate killing assays. […]
smiles,measurement,setting,value
NC[C@H]1O[C@H](O[C@H]2[C@H](O)[C@@H](O[C@H]3O[C@H](CO)[C@@H](O)[C@H](N)[C@H]3O)[C@H](N)C[C@@H]2N)[C@H](N)C[C@@H]1O [tobramycin],MIC (μM) S. aureus (mid-log),S. aureus,3.12 μM
same,antimicrobial activity,"[1]; isolates HL063PA2, HL110PA1, HL110PA4",did not exhibit significant antimicrobial activity
same,bactericidal activity,[1]; strain HL005PA1,strongly bactericidal
same,activity compared with Pentobra,[1]; strains HL053PA2 and HL043PA1,significantly less active
same,MIC,"[2]; isolate S4895552, VSE, LZD-R",> 274 µM
same,MIC,"[2]; isolate W7171143,VSE",68 µM
same,MIC,"[2]; isolate W7214342,VSE",> 274 µM
same,MIC,"[2]; isolate X4540299, VSE",34 µM
same,reduction in CFU,[3]; range of tested concentrations,less than one
same,killing activity against persister cells,[3]; varying concentrations,little susceptibility

# From patent US20170348337A1, “MULTIFUNCTIONAL MEMBRANE-ACTIVE AMINOGLYCOSIDE-PEPTIDE CONJUGATES” (priority 2014, published 2017)
